The target in this experiment is Urease (Canavalia ensiformis, UniProt P07374). The experiment is described as follows: Inhibition Assay. The source says: Inhibition assay using urease from jack bean.

The values that follow come from BindingDB's records for doi:10.1080/14756360802188420 (Bahauddin Zakariya University, 2009).

By IC50 is commonly meant the concentration at which inhibition is half-maximal.

Sequence of Urease (P07374 whole entry): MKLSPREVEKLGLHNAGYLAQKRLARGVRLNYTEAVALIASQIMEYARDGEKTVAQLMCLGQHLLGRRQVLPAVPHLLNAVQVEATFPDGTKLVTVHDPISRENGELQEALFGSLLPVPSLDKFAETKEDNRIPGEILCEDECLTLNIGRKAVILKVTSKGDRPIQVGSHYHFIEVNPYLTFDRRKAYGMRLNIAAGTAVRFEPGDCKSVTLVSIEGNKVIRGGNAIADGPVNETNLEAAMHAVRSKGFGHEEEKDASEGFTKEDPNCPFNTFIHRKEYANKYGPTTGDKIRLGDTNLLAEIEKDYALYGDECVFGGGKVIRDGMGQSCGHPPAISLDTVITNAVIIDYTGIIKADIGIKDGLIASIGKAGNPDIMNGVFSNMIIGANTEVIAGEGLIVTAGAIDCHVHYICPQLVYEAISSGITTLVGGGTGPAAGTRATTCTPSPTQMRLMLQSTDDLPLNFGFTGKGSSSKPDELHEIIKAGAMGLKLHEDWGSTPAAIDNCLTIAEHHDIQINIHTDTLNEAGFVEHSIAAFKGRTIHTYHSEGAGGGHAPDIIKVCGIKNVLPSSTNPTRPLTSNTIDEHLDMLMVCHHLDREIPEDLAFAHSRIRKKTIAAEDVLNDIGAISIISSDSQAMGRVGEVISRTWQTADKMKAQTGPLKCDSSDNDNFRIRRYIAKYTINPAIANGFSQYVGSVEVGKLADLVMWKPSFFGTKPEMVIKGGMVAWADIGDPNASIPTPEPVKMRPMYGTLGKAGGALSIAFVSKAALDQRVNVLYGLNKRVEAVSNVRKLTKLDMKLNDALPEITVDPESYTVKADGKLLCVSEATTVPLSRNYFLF

On to `O=C1Nc2ccccc2/C1=N/NC(=S)Nc1c(Cl)cc(Cl)cc1Cl` [Thiosemicarbazone, 2l], for which the IC50 is 28.6 µM.
